Counter-ions that a name gives are not always drawn.
molecular target: T1, human CB2 receptors (Homo sapiens, UniProt P34972); assay: Affinity for human CB2 receptors: inhibition of [3H]-CP55940 binding to membranes of transfected CHO-K1 cells; conditions: not given
T1 construct: expressed in transfected cells; membranes prepared from them
Method: Study of the Affinity of the Compounds for Human Cannabinoid CB2 Receptors
The affinity of the compounds of the invention for human CB2 receptors was determined by measuring inhibition of [^3H]-CP55940 binding to membrane preparations produced from transfected CHO-K1 cells.
CHO-K1 cells stably expressing human CB2 receptors were cultured in RPMI 1640 medium supplemented with 10% foetal calf serum, 2 mM glutamine, 100 U/ml penicillin, 0.1 mg/ml streptomycin and 0.5 mg/ml G418. The cells were collected using 0.5 mM EDTA and centrifuged at 500 g for 5 min at 4° C. The cell pellet was resuspended in phosphate buffered saline (PBS) and centrifuged at 500 g for 5 min at 4° C. The pellet was resuspended in 50 mM tris buffer pH 7.4 and centrifuged at 500 g for 5 min at 4° C. The cells were lysed by sonication and centrifuged at 39,000 g for 10 min at 4° C. The pellet was resuspended in 50 mM tris buffer pH 7.4 and centrifuged at 50,000 g for 10 min at 4° C. The membranes obtained in this final pellet were stored at −80° C.
Competitive inhibition of the binding of [^3H]-CP55940 to CB2 receptors was determined in duplicate in 96-well polypropylene plates. Cell membranes (10 μg of protein/well) were incubated with [^3H]-CP55940 (1 nM) for 60 min at 25° C. in 50 mM Tris-HCl buffer, pH 7.4, containing 0.1% bovine serum albumin (BSA), 5 mM MgCl2, and 50 μg/ml of bacitracin.
Bound [^3H]-CP55940 was separated from free [^3H]-CP55940 by filtration through GF/C fibre glass filter plates (Unifilter, Packard) pre-impregnated with 0.1% polyethylenimine (P.E.I.), using a Filtermate 196 (Packard). The filters were washed with 50 mM Tris-HCl buffer, pH 7.4 at 0-4° C. and the radioactivity present was determined using a counter (Packard Top Count).
Specific binding was obtained by subtracting non-specific binding (determined in the presence of 0.1 μM WIN55212-2) from total binding. The data were analysed by computer-assisted nonlinear regression (MDL). For each test, the IC50 value was converted to a Ki value (inhibition constant) using the Cheng-Prusoff equation.
where [L] is the concentration of the radioligand used in the assay and Kd is the dissociation constant of the radioligand at equilibrium.

T1 sequence (P34972 whole entry): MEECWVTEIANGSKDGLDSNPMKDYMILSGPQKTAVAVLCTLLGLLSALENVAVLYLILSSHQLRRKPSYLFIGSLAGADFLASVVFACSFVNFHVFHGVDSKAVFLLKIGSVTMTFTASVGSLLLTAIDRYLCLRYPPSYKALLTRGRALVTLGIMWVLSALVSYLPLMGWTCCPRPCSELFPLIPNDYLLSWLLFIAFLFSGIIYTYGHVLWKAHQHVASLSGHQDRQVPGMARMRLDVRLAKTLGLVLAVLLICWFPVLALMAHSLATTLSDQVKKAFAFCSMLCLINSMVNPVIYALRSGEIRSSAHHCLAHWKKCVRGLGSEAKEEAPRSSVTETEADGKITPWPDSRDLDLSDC

Compound | Ki
COc1c(C(C)(C)C)cc(-c2csc(C3(N(C)C)CCOCC3)n2)cc1C(C)(C)C [Example 2, {4-[4-(3,5-di-tert-butyl-4-methoxyphenyl)-1,3-thiazol-2-yl]tetrahydro-2H-pyran-4-yl}dimethylamine hydrochloride] | ≤ 100 nM
CN(C)C1(c2nc(-c3cc(C(C)(C)C)c(O)c(C(C)(C)C)c3)cs2)CCSCC1 [Example 6, 2,6-di-tert-butyl-4-{2-[4-(dimethylamino)tetrahydro-2H-thiopyran-4-yl]-1,3-thiazol-4-yl}phenol hydrochloride] | ≤ 100 nM
CN(C)C1(c2nc(-c3cc(C(C)(C)C)c(O)c(C(C)(C)C)c3)cs2)CCOC1 (stereo not shown) [Example 7, 2,6-di-tert-butyl-4-{2-[3-(dimethylamino)tetrahydrofuran-3-yl]-1,3-thiazol-4-yl}phenol hydrochloride] | 100 to 500 nM
COc1c(Cl)cc(-c2csc(C3(N(C)C)CCOCC3)n2)cc1C(C)(C)C [Example 13, {4-[4-(3-tert-butyl-5-chloro-4-methoxyphenyl)-1,3-thiazol-2-yl]tetrahydro-2H-pyran-4-yl}dimethylamine hydrochloride] | 100 to 500 nM
COc1ccc(-c2csc(C3(N(C)C)CCOCC3)n2)cc1C(C)(C)C [Example 14, {4-[4-(3-tert-butyl-4-methoxyphenyl)-1,3-thiazol-2-yl]tetrahydro-2H-pyran-4-yl}dimethylamine hydrochloride] | 500 to 1000 nM
CN(C)C1(c2nc(-c3cc(C(C)(C)C)c(O)c(C(C)(C)C)c3)co2)CCOCC1 [Example 15, 2,6-di-tert-butyl-4-{2-[4-(dimethylamino)tetrahydro-2H-pyran-4-yl]-1,3-oxazol-4-yl}phenol hydrochloride] | ≤ 100 nM
CC(C)(C)c1cc(-c2csc(C3(N4CCCCC4)CCOCC3)n2)cc(C(C)(C)C)c1O [Example 20, 2,6-di-tert-butyl-4-[2-(4-piperidin-1-yltetrahydro-2H-pyran-4-yl)-1,3-thiazol-4-yl]phenol hydrochloride] | ≤ 100 nM
CC(C)(C)c1cc(-c2csc(C3(N4CCOCC4)CCOCC3)n2)cc(C(C)(C)C)c1O [Example 21, 2,6-di-tert-butyl-4-[2-(4-morpholin-4-yltetrahydro-2H-pyran-4-yl)-1,3-thiazol-4-yl]phenol] | 100 to 500 nM
COc1c(C(C)(C)C)cc(-c2nc(C3(N(C)C)CCOCC3)sc2C)cc1C(C)(C)C [Example 25, {4-[4-(3,5-di-tert-butyl-4-methoxyphenyl)-5-methyl-1,3-thiazol-2-yl]tetrahydro-2H-pyran-4-yl}dimethylamine hydrochloride] | 100 to 500 nM

same assay, conditions: [3H]-CP55940 (1 nM) competition, CHO-K1 membranes; IC50 converted to Ki by Cheng-Prusoff; read-out: affinity for the CB2 receptor

Compound | Ki
CN(C)C1(c2nc(-c3cc(C(C)(C)C)c(O)c(C(C)(C)C)c3)cs2)CCOCC1 [Example 4, 2,6-di-tert-butyl-4-{2-[4-(dimethylamino)tetrahydro-2H-pyran-4-yl]-1,3-thiazol-4-yl}phenol hydrochloride] | ≤ 100 nM
CN(C)C1(c2nc(-c3ccc(C(C)(C)C)cc3)cs2)CCOCC1 [Example 8, {4-[4-(4-tert-butylphenyl)-1,3-thiazol-2-yl]tetrahydro-2H-pyran-4-yl}dimethylamine hydrochloride] | 100 to 500 nM
CN(C)C1(c2nc(-c3cc(C(C)(C)C)cc(C(C)(C)C)c3)cs2)CCOCC1 [Example 11, {4-[4-(3,5-di-tert-butylphenyl)-1,3-thiazol-2-yl]tetrahydro-2H-pyran-4-yl}dimethylamine hydrochloride] | 100 to 500 nM
CN(C)C1(c2nc(-c3ccc(Oc4ccccc4)cc3)cs2)CCOCC1 [Example 16, N,N-dimethyl-4-[4-(4-phenoxyphenyl)-1,3-thiazol-2-yl]tetrahydro-2H-pyran-4-amine hydrochloride] | 100 to 500 nM
CCNC1(c2nc(-c3cc(C(C)(C)C)c(O)c(C(C)(C)C)c3)cs2)CCOCC1 [Example 17, 2,6-di-tert-butyl-4-{2-[4-(ethylamino)tetrahydro-2H-pyran-4-yl]-1,3-thiazol-4-yl}phenol] | 100 to 500 nM
CCN(CC)C1(c2nc(-c3cc(C(C)(C)C)c(O)c(C(C)(C)C)c3)cs2)CCOCC1 [Example 18, 2,6-di-tert-butyl-4-{2-[4-(diethylamino)tetrahydro-2H-pyran-4-yl]-1,3-thiazol-4-yl}phenol hydrochloride] | ≤ 100 nM
CNC1(c2nc(-c3cc(C(C)(C)C)c(O)c(C(C)(C)C)c3)cs2)CCOCC1 [Example 19, 2,6-di-tert-butyl-4-{2-[4-(methylamino)tetrahydro-2H-pyran-4-yl]-1,3-thiazol-4-yl}phenol hydrochloride] | 100 to 500 nM
CN1CCC(c2nc(-c3cc(C(C)(C)C)c(O)c(C(C)(C)C)c3)cs2)(N(C)C)CC1 [Example 23, 2,6-di-tert-butyl-4-{2-[4-(dimethylamino)-1-methylpiperidin-4-yl]-1,3-thiazol-4-yl}phenol hydrochloride] | 100 to 500 nM
CCN(CC)c1ccc(-c2csc(C3(N(C)C)CCOCC3)n2)cc1 [Example 28, (4-{4-[4-(diethylamino)phenyl]-1,3-thiazol-2-yl}tetrahydro-2H-pyran-4-yl)dimethylamine hydrochloride] | 500 to 1000 nM
CN(C)C1(c2nc(-c3ccc(Cc4ccccc4)cc3)cs2)CCOCC1 [Example 29, {4-[4-(4-benzylphenyl)-1,3-thiazol-2-yl]tetrahydro-2H-pyran-4-yl}dimethylamine hydrochloride] | 500 to 1000 nM
CN(C)C1(c2nc(-c3ccc(Oc4ccc([N+](=O)[O-])cc4)cc3)cs2)CCOCC1 [Example 32, N,N-dimethyl-4-{4-[4-(4-nitrophenoxy)phenyl]-1,3-thiazol-2-yl}tetrahydro-2H-pyran-4-amine hydrochloride] | 100 to 500 nM
CN(C)C1(c2nc(-c3ccc(Sc4ccccc4)cc3)cs2)CCOCC1 [Example 33, N,N-dimethyl-4-{4-[4-(phenylthio)phenyl]-1,3-thiazol-2-yl}tetrahydro-2H-pyran-4-amine hydrochloride] | 500 to 1000 nM

system: not given; assay: not given; conditions: not given

Compound | melting point
COc1c(C)cc(-c2csc(C3(N(C)C)CCOCC3)n2)cc1C (as salt: hydrochloride) | 237.5 to 239 °C
CN(C)C1(c2nc(-c3ccc(Oc4cccc(Cl)c4C#N)cc3)cs2)CCOCC1 (as salt: hydrochloride) | 127 to 130 °C
COc1ccc(Oc2ccc(-c3csc(C4(N(C)C)CCOCC4)n3)cc2)cc1 (as salt: hydrochloride) | 120 to 121 °C
COc1c(-c2csc(C3(N(C)C)CCOCC3)n2)cc(C(C)(C)C)cc1C(C)(C)C (as salt: hydrochloride) | 199.4 to 200.7 °C
COc1c(C(C)(C)C)cc(-c2csc(C3(N(C)C)CCOCC3)n2)cc1C(C)(C)C (as salt: hydrochloride) [Example 2, {4-[4-(3,5-di-tert-butyl-4-methoxyphenyl)-1,3-thiazol-2-yl]tetrahydro-2H-pyran-4-yl}dimethylamine hydrochloride] | 215 to 216.7 °C
CN(C)C1(c2nc(-c3ccc(C(C)(C)C)cc3)cs2)CCOCC1 (as salt: hydrochloride) [Example 8, {4-[4-(4-tert-butylphenyl)-1,3-thiazol-2-yl]tetrahydro-2H-pyran-4-yl}dimethylamine hydrochloride] | 205 to 207 °C
CN(C)C1(c2nc(-c3cc(C(F)(F)F)cc(C(F)(F)F)c3)cs2)CCOCC1 (as salt: hydrochloride) [Example 9, (4-{4-[3,5-bis(trifluoromethyl)phenyl]-1,3-thiazol-2-yl}tetrahydro-2H-pyran-4-yl)dimethylamine hydrochloride] | 232.2 to 233 °C

From US20110059970A1, “4-PHENYL-1,3-THIAZOLES AND 4-PHENYL-1,3-OXAZOLES DERIVATIVES AS CANNABINOID RECEPTOR LIGANDS” (IPSEN PHARMA S.A.S., priority 2007, published 2011)
